Columns and labels:
[1] = system: haloperidol-induced catalepsy; conditions: cited from earlier work
[2] = molecular target: T1, Human M4 (Homo sapiens, UniProt P08173); experiment: mAChR M4 cell-based functional assay (calcium flux, decrease of EC80 acetylcholine response); conditions: for Human M4 Emin / remaining activity at 30 µM: % ACh maximum at 30 μM; for remaining activity at 30 µM: read-out: Human M4 Emin; for IC50: M4/Gqi5/CHO-K1 cells, decrease of response to EC80 acetylcholine
T1 construct: Human or rat M4 cDNA, along with the chimeric G protein Gqi5, were transfected into Chinese hamster ovary (CHO-K1) cells; expressed in transfected cells; host or cells: CHO-K1 (Chinese hamster ovary, ATCC), stably co-expressing Gqi5
T1 sequence (P08173 1-479): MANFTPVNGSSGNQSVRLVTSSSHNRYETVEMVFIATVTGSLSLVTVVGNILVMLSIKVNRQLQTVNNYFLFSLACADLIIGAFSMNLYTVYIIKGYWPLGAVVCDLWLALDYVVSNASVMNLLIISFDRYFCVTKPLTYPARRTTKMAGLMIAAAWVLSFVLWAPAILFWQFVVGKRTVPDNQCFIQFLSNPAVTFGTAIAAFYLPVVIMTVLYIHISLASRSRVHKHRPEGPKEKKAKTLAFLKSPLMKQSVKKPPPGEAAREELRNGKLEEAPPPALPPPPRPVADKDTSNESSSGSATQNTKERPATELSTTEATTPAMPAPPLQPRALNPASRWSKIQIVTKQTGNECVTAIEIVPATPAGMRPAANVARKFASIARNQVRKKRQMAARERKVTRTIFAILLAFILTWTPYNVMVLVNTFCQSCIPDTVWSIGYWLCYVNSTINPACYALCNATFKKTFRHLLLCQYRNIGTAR
Method in brief: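 IC50 reflects inhibition of an EC80 acetylcholine calcium response, fitted by four-parameter logistic equation. Fluo-4-loaded M4/Gqi5 CHO-K1 cells received compound (10-point, 1:3 series) 2 s into the FDSS read, then EC20 acetylcholine at 143 s and EC80 at 268 s.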

remaining activity at 30 µM [2] [%] | IC50 [2] [nM] | SMILES | reduction of catalepsy induced by haloperidol ([1]; M4KO mice) | reversal of catalepsy induced by haloperidol ([1]; WT mice) | Human M4 Emin [2] [%]
– | – | CN1[C@@H]2C[C@@H](OC(=O)[C@H](CO)c3ccccc3)C[C@H]1[C@@H]1O[C@@H]12 [scopolamine] | ineffective | completely reversed | –
– | – | [2H]C([2H])([2H])N(c1cc(C(F)(F)F)c(-c2ccc3nn(C)cc3c2C)nn1)[C@H]1C[C@@H]2CN(CC3CCOCC3)C[C@@H]2C1 [Example 7, (3aR,5s,6aS)—N-(6-(2,4-dimethyl-2H-indazol-5-yl)-5-(trifluoromethyl)pyridazin-3-yl)-N-(methyl-d3)-2-((tetrahydro-2H-pyran-4-yl)methyl)octahydrocyclopenta [c]pyrrol-5-amine] | – | – | 15
2 | 7.2 | F[C@H]1CCN(c2cc(C(F)(F)F)c(N[C@H]3C[C@@H]4CN(CC5CCOCC5)C[C@@H]4C3)nn2)C1 [Example 139, (3aR,5s,6aS)-N-(6-((S)-3-fluoropyrrolidin-1-yl)-4-(trifluoromethyl)pyridazin-3-yl)-2-((tetrahydro-2H-pyran-4-yl)methyl)octahydro-cyclopenta[c]pyrrol-5-amine] | – | – | –
3 | 234 | CCOc1ccc(-c2cc(C(F)(F)F)c(N[C@H]3C[C@@H]4CN(CC5CCOCC5)C[C@@H]4C3)nn2)c(F)c1F [Example 56, (3aR,5s,6aS)-N-(6-(4-ethoxy-2,3-difluorophenyl)-4-(trifluoro-methyl)pyridazin-3-yl)-2-((tetrahydro-2H-pyran-4-yl)methyl)octahydro-cyclopenta[c]pyrrol-5-amine] | – | – | –
3 | 35.3 | Fc1ccc(C(F)(F)F)c(-c2cc(C(F)(F)F)c(N[C@H]3C[C@@H]4CN(CC5CCOCC5)C[C@@H]4C3)nn2)c1 [Example 45, (3aR,5s,6aS)-N-(6-(5-fluoro-2-(trifluoromethyl)phenyl)-4-(trifluoromethyl)pyridazin-3-yl)-2-((tetrahydro-2H-pyran-4-yl)methyl)octahydro-cyclopenta[c]pyrrol-5-amine] | – | – | –
3 | 25.1 | Cn1cc2cc(-c3cc(C(F)(F)F)c(N[C@H]4C[C@@H]5CN(CC6COCCO6)C[C@@H]5C4)nn3)ccc2n1 (stereo partly drawn) [Example 20, (3aR,5s,6aS)-2-((1,4-dioxan-2-yl)methyl)-N-(6-(2-methyl-2H-indazol-5-yl)-4-(trifluoromethyl)pyridazin-3-yl)octahydro-cyclopenta[c]pyrrol-5-amine] | – | – | –
7 | 105 | Cc1ccc(F)cc1-c1cc(C#N)c(N[C@H]2C[C@@H]3CN(C[C@@H]4CCOC4)C[C@@H]3C2)nn1 [Example 151, 6-(5-fluoro-2-methylphenyl)-3-(((3aR,5s,6aS)-2-(((S)-tetrahydrofuran-3-yl)methyl)octahydro-cyclopenta[c]pyrrol-5-yl)amino)pyridazine-4-carbonitrile] | – | – | –
3 | 757 | CC(C)Oc1cc(F)c(-c2cc(C(F)(F)F)c(N[C@H]3C[C@@H]4CN(CC5CCOCC5)C[C@@H]4C3)nn2)cc1F [Example 97, (3aR,5s,6aS)-N-(6-(2,5-difluoro-4-isopropoxyphenyl)-4-(trifluoromethyl)pyridazin-3-yl)-2-((tetrahydro-2H-pyran-4-yl)methyl)octahydro-cyclopenta[c]pyrrol-5-amine] | – | – | –
3 | 674 | Fc1ccccc1-c1cc(C(F)(F)F)c(N[C@H]2C[C@@H]3CN(Cc4ccccn4)C[C@@H]3C2)nn1 [Example 101, (3aR,5s,6aS)-N-(6-(2-fluorophenyl)-4-(trifluoro-methyl)pyridazin-3-yl)-2-(pyridin-2-ylmethyl)octahydro-cyclopenta[c]pyrrol-5-amine] | – | – | –
4 | 2.41 | Cc1ccc(F)cc1-c1cc(C(F)(F)F)c(N[C@H]2C[C@@H]3CN(CC4CCOCC4)C[C@@H]3C2)nn1 [compound 11] | – | – | –
5 | 0.8 | Cc1ccc(F)cc1-c1cc(C#N)c(N[C@H]2C[C@@H]3CN(C[C@@H]4CC5CCC4O5)C[C@@H]3C2)nn1 (stereo partly drawn) [Example 147, 3-(((3aR,5s,6aS)-2-(((2S)-7-oxabicyclo[2.2.1]heptan-2-yl)methyl)octahydro-cyclopenta[c]pyrrol-5-yl)amino)-6-(5-fluoro-2-methylphenyl)pyridazine-4-carbonitrile] | – | – | –
3 | 931 | CCc1ccc(F)c(-c2cc(C(F)(F)F)c(N[C@H]3C[C@@H]4CN(CC5CCOCC5)C[C@@H]4C3)nn2)c1 [Example 95, (3aR,5s,6aS)-N-(6-(5-ethyl-2-fluorophenyl)-4-(trifluoromethyl)pyridazin-3-yl)-2-((tetrahydro-2H-pyran-4-yl)methyl)octahydro-cyclopenta[c]pyrrol-5-amine] | – | – | –

SMILES | remaining activity at 30 µM [2] [%] | IC50 [2] [nM] | reduction of catalepsy induced by haloperidol ([1]; M4KO mice) | reversal of catalepsy induced by haloperidol ([1]; WT mice) | Human M4 Emin [2] [%]
Cc1ccc(F)cc1-c1cc(C(F)(F)F)c(O[C@H]2C[C@@H]3CN(CC4CCOCC4)C[C@@H]3C2)nn1 [Example 5, (3aR,5s,6aS)-5-((6-(5-fluoro-2-methylphenyl)-4-(trifluoromethyl)pyridazin-3-yl)oxy)-2-((tetrahydro-2H-pyran-4-yl)methyl)octahydrocyclopenta[c]pyrrole] | – | 1240 | – | – | 7
